Experimental data published in PMC10974272, “Cytotoxic and Antiproliferative Activity of LASSBio-2208 and the Attempts to Determine Its Drug Metabolism and Pharmacokinetics In Vitro Profile” (Pharmaceuticals, 2024).
≈ marks a conversion by molar mass, not a printed value.

Key:
[1] = system: breast cancer cell line (MCF-7); test: MTT cell viability assay, MCF-7; details: Homo sapiens
Method: (§1) After the incubation time, the plate was centrifuged (Universal centrifuge 320R Hettich, Kirchlengern, Germany) at 440× g, 10 min and 4 °C, then 110 µL of supernatant was removed and 10 µL of MTT solution was added and left to incubate for 3.5 h in the oven at 37 °C and 5% CO2. […] The CC50 was calculated using the GraphPad Prism 9.0 program. Each sample was tested in triplicate in three independent experiments (N3) [32, 33].

PC-3 = test: SRB cell viability/antiproliferative assay, PC-3; details: for Emax: SRB 48 h, PC-3, maximum effect at maximum concentration used
MOLT-4 = test: SRB cell viability/antiproliferative assay, MOLT-4; details: Homo sapiens, MOLT-4, 48 h
PAMPA—GIT = format: in vitro ADME; details: for Papp: PAMPA, read-out: Pe. Exp. GIT
Method: To obtain information on the permeability potential of LASSBio-2208 on cell membranes, this derivative was tested using the parallel artificial membrane permeability assay (PAMPA) that is used as an in vitro model of passive diffusion and transcellular permeation. In this model, the permeability across two artificial membranes is measured: brain lipid from pig extract in dodecane (called PAMPA—BBB) and L-α soy phosphatidylcholine in dodecane (called PAMPA—TGI).
To perform the permeability assay we used a donor plate where the compounds (tests or controls) are diluted in a buffered medium, characterized by the presence of a synthetic membrane of polyvinylidene fluoride (PVDF) impregnated with a lipid solution, forming a barrier through which the compounds migrate through a diffusion process to the lower plate called the receptor.
The lipid mixture that impregnates the filter has a different constitution for the permeability tests for the blood–brain barrier (brain lipid from pig extract in dodecane) and gastrointestinal tract (L-α soy phosphatidylcholine in dodecane). In the PAMPA—BBB and PAMPA—GIT assays, the optical density values obtained in the reading at each selected wavelength, for each of the compounds were analysed in comparison with the values of several controls. In the case of the BBB, these values were used to elaborate an equation and determine the permeability coefficient (Pe), using a previously elaborated spreadsheet, and, for the PAMPA—GIT, these values were used to determine the absorbed fraction (Fa%), both using the Excel program. The permeability result for PAMPA—GIT classifies the compounds according to the percentage of absorbed fraction (Fa%), as follows: high intestinal permeability (70–100%), medium permeability (30–69%) or low permeability (0–29%), and the samples were diluted from a stock solution of 10 mM. The PAMPA—BBB model classifies the compounds only as follows: permeable (CNS+) or non-permeable (CNS−) and the assays were made from a stock solution of 1 mg for each compound [25, 40, 41, 42].

MCF-7 = test: SRB cell viability/antiproliferative assay, MCF-7; details: Homo sapiens, MCF7, 48 h; for Emax: SRB 48 h, MCF-7, maximum effect at maximum concentration used
[2] = system: human prostate cancer cell line (PC-3); test: MTT cell viability assay, PC-3; details: Homo sapiens
Method: as §1

PI3Kβ = details: cited from earlier work
mTOR = details: cited from earlier work
PI3Kγ = details: cited from earlier work
[3] = parameters: method as in PMID 32022441; details: cited from earlier work
[4] = system: PC3 prostate carcinoma cell line; parameters: method as in PMID 33919077; details: PC3, flow cytometry, 24 h assay; cited from earlier work
[5] = system: PC3 prostate carcinoma cell line; parameters: method as in PMID 33919077; details: cited from earlier work
[6] = parameters: method as in PMID 32022441; details: cited from earlier work; remark: listed apart in the source
PI3Kα = details: cited from earlier work
PI3Kδ = details: cited from earlier work

Row | Structure (SMILES) | CC50 ([1]; MCF7, 24 h) [µM] | Emax ([1]; MCF7, 24 h) [%] | CC50 ([1]; MCF7, 48 h) [µM] | Emax ([1]; MCF7, 48 h) [%] | CC50 ([1]; MCF7, 72 h) [µM] | Emax ([1]; MCF7, 72 h) [%] | CC50 (PC-3; Homo sapiens, PC-3, 48 h) [µM] | Emax (PC-3; Homo sapiens, PC-3, 48 h) [%] | CC50 (MOLT-4) [µM] | Fraction Absorbed (PAMPA—GIT) [%] | Papp (PAMPA—GIT) [×10⁻⁶ cm/s] | CC50 (MCF-7) [µM] | Emax (MCF-7) [%] | CC50 ([2]; 24 h) [µM] | Emax ([2]; 24 h) [%] | CC50 ([2]; 48 h) [µM] | Emax ([2]; 48 h) [%] | CC50 ([2]; 72 h) [µM] | Emax ([2]; 72 h) [%] | also measured
1 | CN(C)c1ccc(C(=O)N/N=C/c2ccc(C(=O)NO)cc2)cc1 [LASSBio-1911] | > 100 | 21.6 | 42.6 | 65.4 | 38.4 | 75.4 | > 100 | < 35 | 53.1 | 20.15 | 0.359 | 39.1 | > 80 | > 100 | 26.4 | > 100 | 42.6 | 77.1 | 59.2 | Emax (PC-3): 34.04%; Emax (MOLT-4): 61%; Pe. Exp. GIT (PAMPA—GIT): 0.592 10^−6 cm/s
2 | O=C(NO)c1ccc(/C=N/NC(=O)c2cc(N3CCOCC3)nc(-c3cccc(O)c3)n2)cc1 [LASSBio-2208] | > 100 | 29.5 | 31.7 | 57.3 | 23 | 60.7 | 98.9 | > 50 | > 100 | 13.78 | 0.39 | 5.44 | 67.4 | > 100 | 18.4 | > 100 | 39.3 | > 100 | 42.1 | IC50 (PI3Kβ): 0.0728 µM; IC50 (mTOR): 0.464 µM; IC50 (PI3Kγ): 1.3 µM; aqueous solubility (thermodynamic solubility) [3]: 1.81 µM (≈ 0.837 µg/mL); cell cycle effect [4]: cell cycle arrest in the G2/M phase; initial cell apoptosis, share of cell population [4]: 60–66%; reduction of cell viability ([5]; PC3, MTT 24 h, highest concentration studied (5 µM)): ~50%; effect on cell viability ([5]; PC3, MTT 48 h, 0.01–5 µM): no effect on cell viability; calculated logP [6]: 1.96; IC50 (PI3Kα): 0.0463 µM; IC50 (PI3Kδ): 0.0724 µM
